Measured values reported in paper PMC12337661, “PIEZO1 mechanical insensitivity in generalized lymphatic dysplasia with the potential for pharmacological rescue” (iScience, 2025).

Legend:
mice = conditions: cited from earlier work
I2286T mPIEZO1 = biological target: T1, I2286T mPIEZO1 (Mus musculus, UniProt E2JF22, I2286T); assay: Intracellular Ca2+ measurement (fura-2), T-REx-293 cells stably transfected; type: cell-based
T1 construct: expressed in transfected cells
Description: T-REx-293 cell line was transfected with pcDNA4/TO-mPIEZO1 constructs using Lipofectamine 2000 (Invitrogen) as above and treated with 200 μg.mL^−1 zeocin (InvivoGen) to select for stably transfected cells. At least two strongly expressing clonal cell lines were established and tested for each variant. All cell lines were maintained in Dulbecco’s Modified Eagle’s medium (Invitrogen) supplemented with 10% heat-inactivated fetal calf serum (Sigma-Aldrich), penicillin (50 units.mL^−1) and streptomycin (0.5 mg.mL^−1) (Sigma-Aldrich) and grown at 37°C in a humidified 5% CO2 incubator.
For intracellular Ca^2+ assays, cells were plated at 80–90% confluence in 96-well plates 24 h prior to recordings (6–8 × 10^4 cells per well). […] Cells were washed with SBS and incubated at room temperature for 20 min prior to recordings. Equal volumes of 2x concentrated compounds were injected to test for acute channel activation. Pre-incubation with compounds occurred during the 20 min prior to recordings. To expose cell membranes to hypo-osmolality, an equal volume of hypotonic SBS (containing only 35 mM NaCl) was injected onto the cells. Measurements were made on a fluorescence plate reader (Flexstation III, Molecular Devices) at room temperature (21 ± 2°C). Fura-2 was excited at 340 nm and 380 nm and emitted light collected at 510 nm, with measurements shown as the change in fluorescence (F) ratio (ΔF340/380).
KC41 (Dooku1) was prepared as described.[28] All purchased chemicals and solvents were used without further purification unless otherwise stated. All compounds were at least 95% pure by 1H NMR. 1H Nuclear Magnetic Resonance spectra were recorded at 500 MHz using a Bruker DRX 500 instrument or at 400 MHz using a Bruker DPX 400. 1H spectra are referenced based on the residual proton in the solvent (e.g., the CHCl3, 0.01% in 99.99% CDCl3). Coupling constants (J) are reported to the nearest 0.1 Hz. 13C NMR spectra were recorded at 125 MHz on 500 MHz spectrometers or at 100 MHz on 400 MHz spectrometers. LC-MS was performed on a Bruker Daltronics running a gradient of increasing acetonitrile (5–95%) in H2O both containing 0.1% formic acid at 1 mL.min^−1, on a short path C18 reverse phase column, detecting compounds with both a diode array detector and a Bruker mass spectrum analyser. HRMS was performed on a Bruker Daltonics micrOTOF using positive electrospray ionisation (ES+). Automated column chromatograph was carried out using a Biotage Isolera Four, using either Sfär Silica D or KP-Silica cartridges. HPLC was performed on an Agilent 1290 Infinity Series equipped with a UV detector and Hyperprep C18 reverse phase column. Key to NMR abbreviations: s (singlet), br s (broad singlet) d (doublet), dd (doublet of doublets), ddd (doublet of doublets of doublets), t (triplet), dt (doublet of triples), q (quartet), m (multiplet), ap. t (apparent triplet). For experiments, Yoda1 and its analogues were prepared as 10 mM stock solutions in 100% dimethyl sulfoxide (DMSO) before serial dilution in DMSO and final dilution in aqueous solution. Cells were exposed to 0.1% DMSO for all concentrations of the compounds from 0 to 10 μM.

T1 sequence (E2JF22 whole entry I2286T): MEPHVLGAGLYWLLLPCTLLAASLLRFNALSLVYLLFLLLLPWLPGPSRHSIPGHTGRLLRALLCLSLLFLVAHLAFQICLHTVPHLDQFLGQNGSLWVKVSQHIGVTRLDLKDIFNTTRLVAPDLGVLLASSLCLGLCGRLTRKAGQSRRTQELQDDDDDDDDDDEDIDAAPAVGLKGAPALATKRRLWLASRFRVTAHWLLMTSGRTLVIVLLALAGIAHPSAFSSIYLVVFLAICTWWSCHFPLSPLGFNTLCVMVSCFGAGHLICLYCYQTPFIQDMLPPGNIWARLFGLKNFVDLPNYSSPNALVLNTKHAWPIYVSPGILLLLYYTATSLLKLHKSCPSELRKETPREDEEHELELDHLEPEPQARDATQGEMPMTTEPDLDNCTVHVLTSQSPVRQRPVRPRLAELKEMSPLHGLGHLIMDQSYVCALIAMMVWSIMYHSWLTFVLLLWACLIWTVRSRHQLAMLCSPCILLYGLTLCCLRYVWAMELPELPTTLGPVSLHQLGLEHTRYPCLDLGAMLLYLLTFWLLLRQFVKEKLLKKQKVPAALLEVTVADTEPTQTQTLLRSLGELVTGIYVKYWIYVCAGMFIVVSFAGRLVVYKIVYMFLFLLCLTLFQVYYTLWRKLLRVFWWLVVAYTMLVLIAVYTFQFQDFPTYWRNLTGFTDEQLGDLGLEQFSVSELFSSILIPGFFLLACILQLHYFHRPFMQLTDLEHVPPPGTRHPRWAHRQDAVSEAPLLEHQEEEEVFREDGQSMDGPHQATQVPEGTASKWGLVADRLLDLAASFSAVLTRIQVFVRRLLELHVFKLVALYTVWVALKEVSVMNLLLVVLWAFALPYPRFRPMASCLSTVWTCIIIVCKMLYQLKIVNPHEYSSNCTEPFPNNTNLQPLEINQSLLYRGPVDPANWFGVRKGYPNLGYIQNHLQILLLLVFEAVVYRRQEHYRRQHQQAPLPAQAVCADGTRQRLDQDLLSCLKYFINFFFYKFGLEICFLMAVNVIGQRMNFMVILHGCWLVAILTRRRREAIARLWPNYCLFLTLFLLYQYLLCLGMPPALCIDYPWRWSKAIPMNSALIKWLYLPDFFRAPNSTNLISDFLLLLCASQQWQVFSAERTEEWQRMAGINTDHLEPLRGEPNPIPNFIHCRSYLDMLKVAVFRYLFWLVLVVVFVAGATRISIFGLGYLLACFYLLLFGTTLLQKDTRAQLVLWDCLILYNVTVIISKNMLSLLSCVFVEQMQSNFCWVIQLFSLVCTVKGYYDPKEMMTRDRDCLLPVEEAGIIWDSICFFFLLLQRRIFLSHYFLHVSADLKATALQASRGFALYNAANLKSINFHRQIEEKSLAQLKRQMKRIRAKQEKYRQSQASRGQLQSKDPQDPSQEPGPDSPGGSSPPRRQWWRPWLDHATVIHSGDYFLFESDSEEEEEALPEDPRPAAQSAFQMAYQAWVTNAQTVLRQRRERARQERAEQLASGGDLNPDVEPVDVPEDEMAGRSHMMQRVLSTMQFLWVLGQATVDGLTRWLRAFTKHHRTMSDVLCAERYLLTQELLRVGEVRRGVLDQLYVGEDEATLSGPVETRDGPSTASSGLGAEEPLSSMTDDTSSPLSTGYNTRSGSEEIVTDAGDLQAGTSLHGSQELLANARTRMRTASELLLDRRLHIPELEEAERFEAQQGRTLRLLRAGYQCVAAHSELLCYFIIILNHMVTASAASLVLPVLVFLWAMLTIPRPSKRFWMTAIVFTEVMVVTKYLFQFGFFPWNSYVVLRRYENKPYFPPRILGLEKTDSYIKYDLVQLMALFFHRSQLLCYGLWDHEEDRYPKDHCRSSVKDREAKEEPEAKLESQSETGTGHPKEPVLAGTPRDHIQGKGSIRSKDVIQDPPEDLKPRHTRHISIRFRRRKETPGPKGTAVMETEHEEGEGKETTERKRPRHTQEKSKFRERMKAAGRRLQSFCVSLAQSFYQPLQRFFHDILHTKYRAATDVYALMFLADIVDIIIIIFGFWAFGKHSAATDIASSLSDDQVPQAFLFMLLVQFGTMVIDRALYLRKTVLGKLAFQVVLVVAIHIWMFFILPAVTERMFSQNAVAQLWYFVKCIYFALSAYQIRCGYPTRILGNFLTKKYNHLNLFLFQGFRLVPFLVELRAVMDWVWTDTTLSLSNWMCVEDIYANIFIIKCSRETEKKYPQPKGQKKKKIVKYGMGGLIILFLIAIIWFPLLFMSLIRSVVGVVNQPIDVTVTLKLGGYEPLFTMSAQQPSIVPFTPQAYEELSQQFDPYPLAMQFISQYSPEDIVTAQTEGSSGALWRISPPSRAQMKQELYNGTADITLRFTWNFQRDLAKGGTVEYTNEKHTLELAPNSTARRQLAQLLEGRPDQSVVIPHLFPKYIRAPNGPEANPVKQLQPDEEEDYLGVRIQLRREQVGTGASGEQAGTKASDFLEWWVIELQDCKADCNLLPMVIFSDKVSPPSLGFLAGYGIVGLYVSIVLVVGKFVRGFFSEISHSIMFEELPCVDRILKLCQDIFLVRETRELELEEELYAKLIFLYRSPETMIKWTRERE

- Mean (ΔFratio) (I2286T mPIEZO1; 0.3 µM, time 0 s): 0.00284
- Mean (ΔFratio) (I2286T mPIEZO1; 0.3 µM, time 5 s): -0.01214
- Mean (ΔFratio) (I2286T mPIEZO1; 0.3 µM, time 10 s): -0.00475
- Mean (ΔFratio) (I2286T mPIEZO1; 0.3 µM, time 15 s): 0.0078
- Mean (ΔFratio) (I2286T mPIEZO1; 0.3 µM, time 20 s): 0.0053
- Mean (ΔFratio) (I2286T mPIEZO1; 0.3 µM, time 25 s): 9.46E-04
- Mean (ΔFratio) (I2286T mPIEZO1; 0.3 µM, time 30 s): -0.3226
- Mean (ΔFratio) (I2286T mPIEZO1; 0.3 µM, time 35 s): 0.06275
- Mean (ΔFratio) (I2286T mPIEZO1; 0.3 µM, time 40 s): 0.07886
- Mean (ΔFratio) (I2286T mPIEZO1; 0.3 µM, time 45 s): 0.1026
- Mean (ΔFratio) (I2286T mPIEZO1; 0.3 µM, time 50 s): 0.1196
- Mean (ΔFratio) (I2286T mPIEZO1; 0.3 µM, time 55 s): 0.1055
- Mean (ΔFratio) (I2286T mPIEZO1; 0.3 µM, time 60 s): 0.1268
- Mean (ΔFratio) (I2286T mPIEZO1; 0.3 µM, time 65 s): 0.1277
- Mean (ΔFratio) (I2286T mPIEZO1; 0.3 µM, time 70 s): 0.1132
- Mean (ΔFratio) (I2286T mPIEZO1; 0.3 µM, time 75 s): 0.108
- Mean (ΔFratio) (I2286T mPIEZO1; 0.3 µM, time 80 s): 0.1196
- Mean (ΔFratio) (I2286T mPIEZO1; 0.3 µM, time 85 s): 0.1097
- Mean (ΔFratio) (I2286T mPIEZO1; 0.3 µM, time 90 s): 0.1266
- Mean (ΔFratio) (I2286T mPIEZO1; 0.3 µM, time 95 s): 0.09696
- Mean (ΔFratio) (I2286T mPIEZO1; 0.3 µM, time 100 s): 0.1131
- Mean (ΔFratio) (I2286T mPIEZO1; 0.3 µM, time 105 s): 0.1125
- Mean (ΔFratio) (I2286T mPIEZO1; 0.3 µM, time 110 s): 0.1236
- Mean (ΔFratio) (I2286T mPIEZO1; 0.3 µM, time 115 s): 0.1032
- Mean (ΔFratio) (I2286T mPIEZO1; 0.3 µM, time 120 s): 0.1051
- Mean (ΔFratio) (I2286T mPIEZO1; 0.3 µM, time 125 s): 0.1128
- Mean (ΔFratio) (I2286T mPIEZO1; 0.3 µM, time 130 s): 0.1149
- Mean (ΔFratio) (I2286T mPIEZO1; 3 µM, time 0 s): 0.00514
- Mean (ΔFratio) (I2286T mPIEZO1; 3 µM, time 5 s): -0.00971
- Mean (ΔFratio) (I2286T mPIEZO1; 3 µM, time 10 s): -0.01128
- Mean (ΔFratio) (I2286T mPIEZO1; 3 µM, time 15 s): -0.00374
- Mean (ΔFratio) (I2286T mPIEZO1; 3 µM, time 20 s): 0.00352
- Mean (ΔFratio) (I2286T mPIEZO1; 3 µM, time 25 s): 0.01607
- Mean (ΔFratio) (I2286T mPIEZO1; 3 µM, time 30 s): -0.3514
- Mean (ΔFratio) (I2286T mPIEZO1; 3 µM, time 35 s): -7.87E-04
- Mean (ΔFratio) (I2286T mPIEZO1; 3 µM, time 40 s): 0.4454
- Mean (ΔFratio) (I2286T mPIEZO1; 3 µM, time 45 s): 0.684
- Mean (ΔFratio) (I2286T mPIEZO1; 3 µM, time 50 s): 0.8254
- Mean (ΔFratio) (I2286T mPIEZO1; 3 µM, time 55 s): 0.9146
- Mean (ΔFratio) (I2286T mPIEZO1; 3 µM, time 60 s): 1.017
- Mean (ΔFratio) (I2286T mPIEZO1; 3 µM, time 65 s): 0.992
- Mean (ΔFratio) (I2286T mPIEZO1; 3 µM, time 70 s): 1.046
- Mean (ΔFratio) (I2286T mPIEZO1; 3 µM, time 75 s): 1.071
- Mean (ΔFratio) (I2286T mPIEZO1; 3 µM, time 80 s): 1.067
- Mean (ΔFratio) (I2286T mPIEZO1; 3 µM, time 85 s): 1.06
- Mean (ΔFratio) (I2286T mPIEZO1; 3 µM, time 90 s): 1.0819
- Mean (ΔFratio) (I2286T mPIEZO1; 3 µM, time 95 s): 1.076
- Mean (ΔFratio) (I2286T mPIEZO1; 3 µM, time 100 s): 1.0617
- Mean (ΔFratio) (I2286T mPIEZO1; 3 µM, time 105 s): 1.0398
- Mean (ΔFratio) (I2286T mPIEZO1; 3 µM, time 110 s): 1.005
- Mean (ΔFratio) (I2286T mPIEZO1; 3 µM, time 115 s): 1.038
- Mean (ΔFratio) (I2286T mPIEZO1; 3 µM, time 120 s): 1.008
- Mean (ΔFratio) (I2286T mPIEZO1; 3 µM, time 125 s): 0.9978
- Mean (ΔFratio) (I2286T mPIEZO1; 3 µM, time 130 s): 0.9846
- Mean normalise fluorescence (I2286T mPIEZO1; 1.5 min exposure, 0.03 µM): -0.00469
- Mean normalise fluorescence (I2286T mPIEZO1; 1.5 min exposure, 0.1 µM): -0.00217
- Mean normalise fluorescence (I2286T mPIEZO1; 1.5 min exposure, 0.3 µM): 0.03506
- Mean normalise fluorescence (I2286T mPIEZO1; 1.5 min exposure, 1 µM): 0.1805
- Mean normalise fluorescence (I2286T mPIEZO1; 1.5 min exposure, 3 µM): 0.4613
- Mean normalise fluorescence (I2286T mPIEZO1; 1.5 min exposure, 5 µM): 0.7197
- Mean normalise fluorescence (I2286T mPIEZO1; 1.5 min exposure, 10 µM): 1
- Mean normalise fluorescence (I2286T mPIEZO1; 20 min exposure, normalized to 3 μM, 0.03 µM): 0.09646
- Mean normalise fluorescence (I2286T mPIEZO1; 20 min exposure, normalized to 3 μM, 0.1 µM): 0.04298
- Mean normalise fluorescence (I2286T mPIEZO1; 20 min exposure, normalized to 3 μM, 0.3 µM): 0.2627
- Mean normalise fluorescence (I2286T mPIEZO1; 20 min exposure, normalized to 3 μM, 1 µM): 0.9872
- Mean normalise fluorescence (I2286T mPIEZO1; 20 min exposure, normalized to 3 μM, 3 µM): 1
- Mean normalise fluorescence (I2286T mPIEZO1; 20 min exposure, normalized to 3 μM, 10 µM): 0.9221
- EC50 (I2286T mPIEZO1; long (20 min) exposure, normalized to 3 μM Yoda1): 410 nM
- Effect on mPIEZO1 channel function (I2286T mPIEZO1; versus WT): loss of MA: LOF; reduced Y1 potency
Compound: Clc1cccc(Cl)c1CSc1nnc(-c2cnccn2)s1 [Yoda1]
- lymphatic valve formation (mice; WT mice): accelerated lymphatic valve formation
- adverse effects of injection (mice; mice injected): mostly not been adversely affected
- effect on edemas (mice; mice): reduce peripheral and central edemas
- meningeal lymphatic network function (mice; mice): restored meningeal lymphatic network function
- postsurgical lymphedema (mice; mice): suppressed postsurgical lymphedema
- cerebrospinal fluid accumulation and ventricular enlargement (mice; mouse models of Down syndrome): decreased pathological cerebrospinal fluid accumulation and ventricular enlargement
